These results are taken from patent US20080269313A1, “Prolyl Oligopeptidase Inhibitors Ameliorating Recovery From Brain Trauma” (ORION CORPORATION, priority 2003, published 2008).

Assay [1] deals with male rats with the focal forebrain ischemia. Put plainly: limb-placing test after focal forebrain ischemia (middle cerebral artery occlusion 90 min). In kind it is in vivo, rat. As to conditions: for difference in limb-placing test between JTP-4819 and control groups: ischemic rats vs vehicle control. The procedure:
The effects of JTP-4819 on the recovery in the use of limbs assessed by the limb placing task in male rats with the focal forebrain ischemia.
The experiment was carried out on male Spraque-Dawley rats (about 200 g), bred in B&K, Sweden. The rats were allowed to acclimatized for one week before the start of teaching of behavioural testing and subsequent operation (Table 1). During acclimatization period, the rats were housed in solid bottom Macrolon type III cages with stainless steel mesh lids (at maximum five rats in each cage). The rats had free access to standard certified pelleted food (RM1 Maintenance Expanded SQC; Special Diet Services, Essex, UK) and water. After operation, the rats were housed singly in a Macrolon cage. Some food pellets were put into a cage in order to enable to their feeding. On the second post-operative day and thereafter, the rats were housed (maximum 10 rats in one cage) in the enriched environment (Enriched rat cage system, 03-RS-R, Scanbur A/S, Lellinge, Denmark) where the floor area of one cage was 4250 cm^2. […] Tap water and pelleted food were freely available.
Anesthesia was initiated with 4-5% halothane (30% oxygen, 65% nitrous oxide) and maintained throughout the operation with 0.5-1.5% halothane delivered via a nose cone. Body temperature was maintained at 37.0±0.5° C. using a thermoregulatory heating unit with homeothermic blanket (HB 101/2 RS, Letica Scientific Instruments). Heparin (40 IU, i.v.) was given just before the operation to prevent possible complications caused by blood coagulation. The right common carotid artery was exposed through a midline ventral cervical incision, and carefully separated from the adjacent sympathetic nerves under a stereomicroscope. The common carotid artery and internal carotid artery were then clamped with microvascular clips. The external carotid artery was ligated distally with a nylon suture and the artery was cut for induction of suture. A heparinized nylon suture (Ø0.28 mm, rounded tip) was introduced into the stump of the external carotid artery, the internal carotid artery clip was removed, and the suture was advanced into the internal carotid artery until it passed beyond the origin of the middle cerebral artery. After occlusion for 90 min, the suture was removed to allow reperfusion in the middle cerebral artery territory. The stump of the external carotid artery was electrocoagulated and the common carotid artery clip was removed. The cervical incision was closed with silk sutures after the application of 2% lidocain gel (Xylocaln® 2%, Astra Finland). In sham-operated rats, the right common carotid artery was exposed and the external carotid artery was electrocoagulated without introducing the filament into the internal carotid artery. Animals were given 0.9% NaCl (i.p.) during the first-post-operative days (days 0 and 1). They were housed singly in a Macrolon cage.
JTP-4819 was dissolved in sterile saline. The drug was injected 1 ml/kg intraperitoneally (i.p.). […] On the testing day 2, the drug was injected after the rats were tested in a limb placing test and assigned to groups. On days 3-14, the rats were treated even if they were not tested in a limb placing test Table 1). In those days (6, 8, 10, 12, 13), the rats were injected in the afternoon, about 24 hours after the preceding injection. […]
On the second day after operation, behavioral deficits of rats were assessed by using a limb-placing test (De Ryck et al., 1989). […]

Assay [2] has as its system experimental models of senile dementia. The following applies: Toide et al. 1997; cited from earlier work.

Regarding `O=C(CO)[C@@H]1CCCN1C(=O)[C@@H]1CCCN1C(=O)NCc1ccccc1` [JTP-4819], the “difference in limb-placing test between JTP-4819 and control groups” value is given as “significant difference (p<0.05)” in assay [1] (1 μmol/kg i.p. daily, from day 5 to day 17 after ischemia); “significant difference (p<0.05)” in assay [1] (9 μmol/kg i.p. daily, on day 3 and 9). For the same compound, the “recovery in limb-placing score as compared to vehicle treated rats (FIG. 1)” value in assay [1] (0.9 or 9.0 μmol/kg intraperitoneally, especially the lower dose, day 5-17) is listed as “augmented recovery”. The “recovery in the use of limbs” value in assay [1] (daily systemic administration started after unilateral focal forebrain ischemia, rats) is reported as “enhanced the recovery in the use of limbs”. Further, in assay [1] (lower dose of JTP-4819 (1 μmol/kg i.p.), after treatment days 2-14), the “limb-placing test effect after the discontinuation of drug administration” value is recorded as “amelioration effect also was seen”. For the same compound, in assay [2], the cognition effects entry is listed as “cognition improving effects”.
